GI50 data for 13 compounds are collected here from US20240398805A1, “QUINAZOLINE DERIVED COMPOUNDS AS EGFR INHIBITORS AND THEIR USES THEREOF” (ACCUTAR BIOTECHNOLOGY INC., priority 2021, published 2024).

What all share (format): cell-based
In assay [1] the test system is HCC827-SVD cells (human EGFR exon 20 insertion mutant D770_N771 insSVD). Briefly: Cell growth inhibition (CellTiter-Glo, 3 days) in HCC827-SVD. Conditions: 72 h, 3 days after administration. In short, it runs like this: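 HCC827 cells carrying lentiviral codon-optimized EGFR D770_N771 insSVD, with endogenous EGFR knocked out by CRISPR (single clone), seeded at 5000 cells/well in RPMI with 10% FBS. Viability read by CellTiter-Glo luminescence.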
On the technique in general: In ATP-based viability assays light output follows the ATP content of the culture.

For assay [2], the system named is HCC827 cells. The assay is described as follows: Cell growth inhibition (CellTiter-Glo, 3 days) in HCC827. Conditions: Homo sapiens, 72 h, 3 days after administration. In short, it runs like this:
(§1)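 HCC827 cells in RPMI/10% FBS and A431 cells in DMEM/10% FBS were seeded at 5000 cells/well and left overnight. Compound was then added over a concentration range for 3 days of incubation, and viability was read by CellTiter-Glo luminescence.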

The subject of assay [3] is A431 cells. The assay is described as follows: Cell growth inhibition (CellTiter-Glo, 3 days) in A431. Conditions: Homo sapiens, A-431, 72 h, 3 days after administration. The method in brief: as §1
Assay [4] has as its system HCC827-YVMA cells (human ERBB2 exon20 insertion mutant A775_G776ins YVMA). Briefly: Cell growth inhibition (CellTiter-Glo, 3 days) in HCC827-YVMA. As to conditions: 72 h, 3 days after administration. In short, it runs like this:
(§2)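 HCC827 cells lentivirally transduced with codon-optimized ASV or YVMA insertion mutants were seeded at 5000 cells/well in RPMI with 10% FBS and incubated overnight. Compound was added at various concentrations from a 10× stock in medium, with 3 days' incubation. Viability read by CellTiter-Glo luminescence.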

In assay [5] the test system is HCC827-ASV cells (human EGFR exon 20 insertion mutant A769_D770insASV). Briefly: Cell growth inhibition (CellTiter-Glo, 3 days) in HCC827-ASV. Conditions: 72 h, 3 days after administration. The method in brief:
as §2

What is called GI50 is the concentration at which growth is held to half of that of the control. The low end stands for more potent growth inhibition, the high end for less potent growth inhibition.

Take `C=CC(=O)N1CCC(Nc2cc3c(Nc4ccc(Oc5ccnc(N[C@H]6CCOC6)c5)cc4F)ncnc3cc2OC)CC1` [Example 247, (S)-1-(4-((4-((2-fluoro-4-((2-((tetrahydrofuran-3-yl)amino)pyridin-4-yl)oxy)phenyl)amino)-7-methoxyquinazolin-6-yl)amino)piperidin-1-yl)prop-2-en-1-one]: the GI50 lay in the range of 60 to 100 nM in assay [1]; 100 to 300 nM in assay [2]; 600 to 1000 nM in assay [3]; 30 to 60 nM in assay [4]; 60 to 100 nM in assay [5].
As for `C=CC(=O)Nc1cc2c(Nc3ccc(Oc4ccnc(N5C[C@@H](C)O[C@@H](C)C5)c4)cc3F)ncnc2cc1OCC` [Example 169, N-(4-((4-((2-((2S,6R)-2,6-dimethylmorpholino)pyridin-4-yl)oxy)-2-fluorophenyl)amino)-7-ethoxyquinazolin-6-yl)acrylamide], the 50% growth inhibitory concentration (GI50) in assay [1], in assay [2], in assay [3], in assay [4] and in assay [5] was not below 1000 nM in each case.
For the compound `C=CC(=O)N1CCC(Nc2cc3c(Nc4ccc(Oc5ccnc(N6CC(F)(F)C6)c5)cc4F)ncnc3cc2OC)CC1` [Example 201, 1-(4-((4-((4-((2-(3,3-difluoroazetidin-1-yl)pyridin-4-yl)oxy)-2-fluorophenyl)amino)-7-methoxyquinazolin-6-yl)amino)piperidin-1-yl)prop-2-en-1-one], the GI50 in assay [1] is less than 30 nM; in assay [2], 60 to 100 nM; in assay [3], 600 to 1000 nM; in assay [4], less than 30 nM; in assay [5], less than 30 nM.
Take `C=CC(=O)N1CCC(Nc2cc3c(Nc4ccc(Oc5ccnc(N6CCC(OC)CC6)c5)cc4F)ncnc3cc2OC)CC1` [Example 104, 1-(4-((4-((2-fluoro-4-((2-(4-methoxypiperidin-1-yl)pyridin-4-yl)oxy)phenyl)amino)-7-methoxyquinazolin-6-yl)amino)piperidin-1-yl)prop-2-en-1-one]: the 50% growth inhibitory concentration (GI50) in assay [1] was less than 30 nM; in assay [2], 100 to 300 nM; in assay [3], not below 1000 nM; in assay [4] it was less than 30 nM; in assay [5] it was less than 30 nM.
With `C=CC(=O)N1CCC(Nc2cc3c(Nc4ccc(Oc5ccnc(N6CCC(O)C(F)(F)C6)c5)cc4F)ncnc3cc2OC)CC1` (centres unmarked) [Example 172, 1-(4-((4-((4-((2-(3,3-difluoro-4-hydroxypiperidin-1-yl)pyridin-4-yl)oxy)-2-fluorophenyl)amino)-7-methoxyquinazolin-6-yl)amino)piperidin-1-yl)prop-2-en-1-one], the GI50 in assay [1] is less than 30 nM; in assay [2], 300 to 600 nM; in assay [3] it was 600 to 1000 nM; in assay [4], less than 30 nM; in assay [5] it was less than 30 nM.
In the case of `C=CC(=O)N1CCC(Nc2cc3c(Nc4ccc(Oc5ncc(-c6cnc(C)c(F)c6)s5)cc4F)ncnc3cc2OC)CC1` [Example 88, 1-(4-((4-((2-fluoro-4-((5-(5-fluoro-6-methylpyridin-3-yl)thiazol-2-yl)oxy)phenyl)amino)-7-methoxyquinazolin-6-yl)amino)piperidin-1-yl)prop-2-en-1-one], the 50% growth inhibitory concentration (GI50) in assay [1] is 100 to 300 nM; in assay [2], 30 to 60 nM; in assay [3], not below 1000 nM; in assay [4] it was 30 to 60 nM; in assay [5], 60 to 100 nM.
Take `C=CC(=O)N1CCC(Oc2cc3c(Nc4ccc(Oc5ccnc(N6CCN(C(C)C)CC6)c5)cc4F)ncnc3cc2OC)CC1` [Example 157, 1-(4-((4-((2-fluoro-4-((2-(4-isopropylpiperazin-1-yl)pyridin-4-yl)oxy)phenyl)amino)-7-methoxyquinazolin-6-yl)oxy)piperidin-1-yl)prop-2-en-1-one]: the GI50 in assay [1], in assay [2], in assay [3], in assay [4] and in assay [5] was not below 1000 nM each time.
Turning to `C=CC(=O)N1CCC(Nc2cc3c(Nc4ccc(Oc5ccnc(N6CCC(C#N)C6)c5)cc4F)ncnc3cc2OC)CC1` (centres unmarked) [Compound 151, 1-(4-(4-((6-((1-acryloylpiperidin-4-yl)amino)-7-methoxyquinazolin-4-yl)amino)-3-fluorophenoxy)pyridin-2-yl)pyrrolidine-3-carbonitrile], the concentration for 50% growth inhibition (GI50) was less than 30 nM in assay [1]; 100 to 300 nM in assay [2]; 600 to 1000 nM in assay [3]; less than 30 nM in assay [4]; less than 30 nM in assay [5].
As to `C=CC(=O)N1CC2(CC(Oc3cc4c(Nc5ccc(Oc6ccn(-c7cnc(OC)nc7)n6)cc5F)ncnc4cc3OC)C2)C1` [Compound 79, 1-(6-((4-((2-fluoro-4-((1-(2-methoxypyrimidin-5-yl)-1H-pyrazol-3-yl)oxy)phenyl)amino)-7-methoxyquinazolin-6-yl)oxy)-2-azaspiro [3.3]heptan-2-yl) prop-2-en-1-one], the 50% growth inhibitory concentration (GI50) in assay [1], in assay [2], in assay [3], in assay [4] and in assay [5] was not below 1000 nM in each case.
For `C=CC(=O)Nc1cc2c(Nc3ccc(Oc4ccnc(-c5nc(C)cs5)c4)cc3F)ncnc2cc1OCC` [Example 168, N-(7-ethoxy-4-((2-fluoro-4-((2-(4-methylthiazol-2-yl)pyridin-4-yl)oxy)phenyl)amino)quinazolin-6-yl)acrylamide], the concentration for 50% growth inhibition (GI50) in assay [1] is 300 to 600 nM; in assay [2] it was not below 1000 nM; in assay [3], not below 1000 nM; in assay [4], not below 1000 nM; in assay [5] it was not below 1000 nM.
Consider `C=CC(=O)N1CCC(Nc2cc3c(Nc4ccc(Oc5ccnc(N6CC[C@@H](CO)C6)c5)cc4F)ncnc3cc2OC)CC1` [Example 251, (R)-1-(4-((4-((2-fluoro-4-((2-(3-(hydroxymethyl)pyrrolidin-1-yl)pyridin-4-yl)oxy)phenyl)amino)-7-methoxyquinazolin-6-yl)amino)piperidin-1-yl)prop-2-en-1-one], for which the concentration for 50% growth inhibition (GI50) in assay [1] is less than 30 nM; in assay [2], 100 to 300 nM; in assay [3], 300 to 600 nM; in assay [4] it was 30 to 60 nM; in assay [5], 30 to 60 nM.
Take `C=CC(=O)N1CCC(Nc2cc3c(Nc4ccc(Oc5nc(-c6cnc(OC)nc6)cs5)cc4F)ncnc3cc2OC)CC1` [Example 53, 1-(4-((4-((2-fluoro-4-((4-(2-methoxypyrimidin-5-yl)thiazol-2-yl)oxy)phenyl)amino)-7-methoxyquinazolin-6-yl)amino)piperidin-1-yl)prop-2-en-1-one]: the 50% growth inhibitory concentration (GI50) in assay [1] was less than 30 nM; in assay [2], 30 to 60 nM; in assay [3], 100 to 300 nM; in assay [4], less than 30 nM; in assay [5], less than 30 nM.
`C=CC(=O)N1CCC(Nc2cc3c(Nc4ccc(Oc5ccnc(N6CC(O)(C(F)(F)F)C6)c5)cc4F)ncnc3cc2OC)CC1` [Example 206, 1-(4-((4-((2-fluoro-4-((2-(3-hydroxy-3-(trifluoromethyl)azetidin-1-yl)pyridin-4-yl)oxy)phenyl)amino)-7-methoxyquinazolin-6-yl)amino)piperidin-1-yl)prop-2-en-1-one]: the concentration for 50% growth inhibition (GI50) is less than 30 nM in assay [1]; 60 to 100 nM in assay [2]; 100 to 300 nM in assay [3]; less than 30 nM in assay [4]; less than 30 nM in assay [5].
